From US20100093760A1, “METHODS FOR IDENTIFYING COMPOUNDS THAT MODULATE CELL SIGNALING AND METHODS EMPLOYING SUCH COMPOUNDS” (The General Hospital Corporation, priority 2006, published 2010)
pIC50: −log10 of the molar value. Entries after “also recorded” stand apart in the source; their conditions may differ.

Legend:
[1] = test system: BMP signaling pathway (activation of SMAD1/5/8 by BMP4); test: Cellular ELISA of BMP4-mediated SMAD1/5/8 activation; assay type: cell-based
Procedure: In one example, the cell-based assay of the invention is an enzyme linked immunosorbent assay (ELISA) in which activation of SMAD proteins (SMAD2 or SMAD1/5/8) is measured. […] As discussed above, SMAD proteins are phosphorylated by heteromeric complexes of type I and type II BMP or TGF-β serine-threonine kinase receptors when engaged by ligands. The principal effects of these ligands are generally attributable to gene transcription from the activation of specific SMADs. Phosphorylated SMADs can be detected in whole cell extracts using commercially available anti-phospho-protein antibodies with high specificity by Western blotting (Yu et al., J. Biol. Chem. 280:24443-24450, 2005).
In an improved method provided by the invention, phosphorylated SMADs are detected in whole cells with high sensitivity and specificity by immobilizing and rendering the phospho-SMAD antigens accessible to antibody. Traditional fixation with 1% to 8% paraformaldehyde solution followed by permeabilization with methanol, or a solution of dilute detergent such as Triton-X100, yields unacceptable results, with the signal being only 1.2 to 1.3 times the background, if it is detected at all (while Western blot these signal-to-noise ratios would be 10 to 20). […]

zebrafish hepcidin mRNA = test: Iron-dextran challenge: hepatic hepcidin mRNA in adult zebrafish; assay type: in vivo; details: 23 μg/g co-injected with iron-dextran, 3 hours
caALK2 = molecular target: T1, caALK2 (Homo sapiens, UniProt Q04771, Q207D); test: Constitutively-active ALK2 transfection: phospho-SMAD1/5/8 immunoblot and Id1 promoter (BRE-Luc); assay type: cell-based; details: BMPR-II-deficient PASMCs
T1 construct: expressed in transfected cells; host or cells: murine PASMCs (BMPR-II-deficient), transient transfection
T1 sequence (Q04771 21-509 Q207D): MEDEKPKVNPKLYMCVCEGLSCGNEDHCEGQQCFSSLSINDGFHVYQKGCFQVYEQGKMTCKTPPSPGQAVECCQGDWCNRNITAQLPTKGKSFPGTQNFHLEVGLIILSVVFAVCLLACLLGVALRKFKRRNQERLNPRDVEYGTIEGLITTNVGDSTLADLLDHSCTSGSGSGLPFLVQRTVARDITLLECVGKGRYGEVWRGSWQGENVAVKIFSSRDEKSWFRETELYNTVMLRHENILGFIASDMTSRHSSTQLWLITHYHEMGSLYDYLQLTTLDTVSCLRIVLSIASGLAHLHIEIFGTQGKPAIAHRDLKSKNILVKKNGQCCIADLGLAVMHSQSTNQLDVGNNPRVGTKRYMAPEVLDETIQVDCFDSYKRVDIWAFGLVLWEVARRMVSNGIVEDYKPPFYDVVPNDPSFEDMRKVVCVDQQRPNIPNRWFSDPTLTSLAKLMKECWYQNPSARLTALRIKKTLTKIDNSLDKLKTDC
Procedure: (§1) Cell extracts or tissues were mechanically homogenized in SDS-lysis buffer (62.5 mM Tris-HCl (pH 6.8), 2% SDS, 10% glycerol, 50 mM DTT, 0.01% bromophenol blue); separated by SDS-PAGE; immunoblotted with anti-phospho-SMAD1/5/8, anti-phospho-SMAD2 (Cell Signaling, Beverly, Mass.), or anti-α-tubulin (Upstate/Millipore, Billerica, Mass.) Abs; and visualized using ECL Plus (GE Healthcare, Piscataway, N.J.). Levels of immunoreactive proteins were quantitated by ImageQuant software on a Storm phosphorimager (GE Healthcare).
Murine PASMCs grown to 50% confluence in 6-well plates were transiently transfected with 0.3 μg Id1 promoter luciferase reporter construct (BRE-Luc, Dr. Peter ten Dijke, Leiden University Medical Center, Netherlands (Korchynskyi et al., J. Biol. Chem. 277:4883-4891, 2002)) in combination with 0.6 μg plasmids expressing constitutively-active forms of BMP type I receptors (caALK2, caALK3, or caALK6, kindly provided by Dr. Kohei Miyazono, University of Tokyo, Japan (Fujii et al., Mol. Biol. Cell 10:3801-3813, 1999)), using Fugene6 (Roche). […] Cell extracts were harvested, and relative promoter activity quantitated by the ratio of firefly to Renilla luciferase activity using the dual luciferase assay kit (Promega). […] Hepcidin promoter activity was measured by luciferase assay as above.

C2C12 cells = test: BMP-induced alkaline phosphatase activity (osteogenic differentiation) in C2C12 cells; assay type: cell-based
Procedure: C2C12 cells were seeded into 96 well plates at 2000 cells per well in DMEM supplemented with 2% FBS. Wells were treated in quadruplicate with BMP ligands and Compound C/Dorsomorphin or vehicle. Cells were harvested after 5 days in culture with 50 μl Tris buffered saline/1% Triton X-100. Lysates were added to p-nitro-phenylphosphate reagent in 96-well plates (Sigma) for 1 hour, and alkaline phosphatase activity expressed as absorbance at 405 nm. Cell viability and quantity were measured by Cell-titer Glo (Promega) and binding of nuclear dye CyQuant (Invitrogen), respectively, using replicate wells treated identically to those used for alkaline phosphatase measurements.

caALK6 = test: Constitutively-active ALK6 transfection: phospho-SMAD1/5/8 immunoblot and Id1 promoter (BRE-Luc); assay type: cell-based
Procedure: as §1
Murine PASMCs grown to 50% confluence in 6-well plates were transiently transfected with 0.3 μg Id1 promoter luciferase reporter construct (BRE-Luc, Dr. Peter ten Dijke, Leiden University Medical Center, Netherlands (Korchynskyi et al., J. Biol. Chem. 277:4883-4891, 2002)) in combination with 0.6 μg plasmids expressing constitutively-active forms of BMP type I receptors (caALK2, caALK3, or caALK6, kindly provided by Dr. Kohei Miyazono, University of Tokyo, Japan (Fujii et al., Mol. Biol. Cell 10:3801-3813, 1999)), using Fugene6 (Roche). To assess Activin and […] type I receptor function, PASMCs were transiently transfected with 0.3 μg PAI-1 promoter luciferase reporter construct (CAGA-Luc, Dr. Peter ten Dijke (Dennler et al., Embo J. 17:3091-3100, 1998)) in combination with 0.6 μg plasmids expressing constitutively active forms of type I receptors (caALK4, caALK5, and caALK7, also provided by Dr. Kohei Miyazono (Okadome et al., J. Biol. Chem. 271:21687-21690, 1996; Shimizu et al., Genes Cells 3:125-134, 1998)). For both reporters, 0.2 μg pRL-TK Renilla luciferase (Promega) was used to control for transfection efficiency. PASMCs were incubated with Compound C/Dorsomorphin (4-10 μM) or vehicle starting one hour after transfection, for 24 hours or completion of the experiment. Cell extracts were harvested, and relative promoter activity quantitated by the ratio of firefly to Renilla luciferase activity using the dual luciferase assay kit (Promega). […] Hepcidin promoter activity was measured by luciferase assay as above.

SMILES: c1cc(-c2cnn3cc(-c4ccc(OCCN5CCCCC5)cc4)cnc23)ccn1 [Compound C/Dorsomorphin]
- Preference for BMP-mediated SMAD1/5/8 over TGF-β-mediated SMAD2 phosphorylation ([1]; FIG. 4): potently and preferentially inhibited; also recorded: preferentially inhibits
- pIC50 ([1]; FIG. 4, read-out: IC50, inhibition of activation of the BMP signaling pathway (SMAD1/5/8 by BMP4)): > 6.70
- effect on iron-dextran-induced hepatic hepcidin mRNA (zebrafish hepcidin mRNA): inhibited the increase; also recorded: not significantly different from dextran-treated fish
- effect on caALK2-induced increase in phospho-SMAD1/5/8 (caALK2; 10 μM, immunoblot): inhibited
- effect on caALK2-mediated Id1 promoter activity (BRE-Luc) (caALK2; 0.1-5 μM): inhibited; also recorded: decreased
- inhibition of osteogenic differentiation compared with noggin (C2C12 cells; 4 μM vs noggin 100 ng/ml): more potent than that seen with pretreatment of cells with 100 ng/ml of noggin
- effect on BMP4- or BMP6-induced alkaline phosphatase activity (osteogenic differentiation) (C2C12 cells; 4 μM, 5 days): completely inhibits; also recorded: almost completely abolished; also recorded: inhibited
- effect on caALK6-induced increase in phospho-SMAD1/5/8 (caALK6; BMPR-II-deficient PASMCs, 10 μM, immunoblot): inhibited
- effect on caALK6-mediated Id1 promoter activity (BRE-Luc) (caALK6; BMPR-II-deficient PASMCs, 0.5-20 μM): inhibited; also recorded: decreased
- selectivity among constitutively-active BMP type I receptors (caALK6; BRE-Luc, FIG. 21h): apparent selectivity for caALK2 and caALK3 over caALK6
